Test results: patent US8933019B2, “Antiviral cell-penetrating peptides” (priority 2008, dated 2015)
Read-outs that look alike come from different tables or passages of the source. Bridge positions count the residues as written; N and C are the ends. Square brackets hold non-standard residues; d marks the D form. Peptide text beside a SMILES is read from it. S5 = C=CCCC[C@](C)(N)C(=O)O

Columns and labels:
HIV-1 IIIB [1] = test: Release and infectivity of HIV-1 virus released from infected MT-2 cells after treatment; format: cell-based; conditions: 500 nM, normalized for p24, TCID50
Procedure: On the fourth day post-infection, the supernatants were collected and filtered with a 0.45 μm PVDF membrane. One aliquot of the supernatants from each sample was mixed 1:1 with a solution of 5% Triton X-100 for p24 quantification, and stored at 4° C., another aliquot was immediately frozen at −80° C. and used to compare the infectivity of the viral particles released by NYAD-201 and NYAD-202 treated cells to the viral particles released by untreated cells. The protein p24 was first quantified by sandwich-ELISA, then the viral samples were normalized for the p24 content and titered to calculate the TCID50. MT-2 cells were infected with a two fold dilutions of virus from NYAD-201 and NYAD-202 treated and untreated cells. […] On the fourth day post infection supernatants were collected for p24 quantification by sandwich-ELISA and the TCID50 was calculated by the Spearman-Karber statistical method. […]
For these reasons, not only the quantity but also the quality of the viral particles released in the supernatant was evaluated. First, the p24/viral particles released in the supernatant following NYAD-201 and NYAD-202 treatment were quantified, then starting with the same amount of p24 per sample, the viruses released in the supernatant were titered. The TCID50 was calculated and expressed as percentage infectivity with respect to the untreated positive control. […]

HIV-1 AZT-R = conditions: read-out: IC50 (μM ± SD), HIV-1 AZT-R; RT-resistant isolate, subtype B, MT-2, coreceptor X4
Procedure: (§1) The inhibitory activity of NYAD-201, and related stapled peptides on infection by laboratory-adapted HIV-1 strains was determined as previously described (Jiang et al. J Exp. Med 174:1557-1563, 1991) with minor modifications. Azidothymidine (AZT) was used as a positive control in the infectivity assays. In brief, 1×10^4 MT-2 cells were infected with HIV-1 at 100 TCID50 (50% tissue culture infective dose) (0.01 MOI [multiplicity of infection]) in 200 μl RPMI 1640 medium containing 10% FBS in the presence or absence of peptides at graded concentrations overnight. The culture supernatants were then removed and fresh media containing freshly prepared test peptide were added. On the fourth day post-infection, 100 μl of culture supernatants were collected from each well, mixed with equal volume of 5% Triton X-100 and tested for p24 antigen by ELISA.
(§2) In addition, NYAD-201, NYAD-202 and NYAD-203 were also tested using several laboratory-adapted and primary isolates in MT-2 cells and PBMC (peripheral blood mononuclear cells), respectively.

HIV-1 IIIB [2] = tested on: HIV-1 IIIB
Procedure: as §1, §2

[3] = Cytotoxicity, XTT method, MT-2 cells; format: cell-based, human; conditions: human, read-out: CC50 (μM) ± SD, cytotoxicity in MT-2 cells
Procedure: (§3) Cytotoxicity of peptides in MT-2 cells and PBMC was measured by the XTT [(sodium 3′-(1-(phenylamino)-carbonyl)-3,4-tetrazolium-bis(4-methoxy-6-nitro) bezenesulfonic acid hydrate)] method as previously described (Jiang et al., 2004). Briefly, for MT-2 cells, 100 μl of a peptide at graded concentrations was added to an equal volume of cells (1×10^5 cells/ml) in 96-well plates followed by incubation at 37° C. for 4 days, which ran parallel to the neutralization assay in MT-2 (except medium was added instead of virus). In the case of PBMC, 5×10^5 cells/ml were used and the cytotoxicity was measured after 7 days. After addition of XTT (PolySciences, Inc.), the soluble intracellular formazan was quantitated colorimetrically at 450 nm 4 hr later with a reference at 620 nm. The percent of cytotoxicity and the CC50 values were calculated as above (Table 2 and Table 3).

Jurkat cells = test: Cytotoxicity, LDH leakage, Jurkat cells; format: cell-based; conditions: 30 min, 2 hr and 4 hr of exposure
Procedure: (§4) Cytotoxicity was also evaluated in Jurkat cells using a Promega LDH leakage detection kit. Jurkat cells were plated at 10^4 cells/well in a volume of 200 μl. The test was performed after 30 min, 2 hr and 4 hr of exposure to the NYAD-201, NYAD-202 and NYAD-203 compounds.

[4] = Cytotoxicity, XTT method, PBMC; format: cell-based; conditions: human
Procedure: as §3

HIV-1 89.6 = format: cell-based; conditions: laboratory strain, subtype B, PBMC, coreceptor R5X4; read-out: IC50 (μM ± SD), HIV-1 89.6
Procedure: (§5) The inhibitory activity of peptides on infection by primary HIV-1 isolates was determined as previously described (Jiang et al., Antimicrob. Agents Chemother. 48:4349-4359, 2004). Peripheral blood mononuclear cells (PBMCs) were isolated from the blood of healthy donors at the New York Blood Center by standard density gradient centrifugation using Histopaque-1077 (Sigma-Aldrich). The cells were cultured at 37° C. for 2 hr. Nonadherent cells were collected and resuspended at 5×10^6 cells/ml RPMI-1640 medium containing 10% FBS, 5 μg/ml PHA, and 100 U/ml IL-2 (Sigma-Aldrich), followed by incubation at 37° C. for 3 days. The PHA-stimulated cells (5×10^4 cells/well) were infected with primary HIV-1 isolates at 500 TCID50 (0.01 MOI) in the absence or presence of peptide inhibitor at graded concentrations. Culture media were changed every 3 days and replaced with fresh media containing freshly prepared inhibitor. The supernatants were collected 7 days post-infection and tested for p24 antigen by ELISA (FIG. 6). The percent inhibition of p24 production, IC50 and IC90 values were calculated by the GraphPad Prism software (GraphPad Software Inc.).
(§6) In addition, NYAD-201, NYAD-202 and NYAD-203 were also tested using several laboratory-adapted and primary isolates in MT-2 cells and PBMC (peripheral blood mononuclear cells), respectively. The inhibition of p24 production in MT-2 cells by NYAD-201 and its analogs were measured over a range of concentrations and the concentration required to inhibit 50% (IC50) of the p24 production was calculated. […] NYAD-201 and its analogs inhibited the laboratory strains with low μM potency (IC50˜2-8 μM), and both R5- and X4-tropic viruses were inhibited with similar potency.

HIV-1 BaL = format: cell-based; conditions: laboratory strain, subtype B, PBMC, coreceptor R5; read-out: IC50 (μM ± SD), HIV-1 BaL
Procedure: as §5, §6

HIV-1 SF2 = conditions: read-out: IC50 (μM ± SD), HIV-1 SF2; laboratory strain, subtype B, MT-2, coreceptor R5X4
Procedure: as §1, §2

HIV-1 RF = conditions: read-out: IC50 (μM ± SD), HIV-1 RF; laboratory strain, subtype B, MT-2, coreceptor X4
Procedure: as §1, §2

HIV-1 MN = conditions: read-out: IC50 (μM ± SD), HIV-1 MN; laboratory strain, subtype B, MT-2, coreceptor X4
Procedure: as §1, §2

HIV-1RF/L-323-12-3 = conditions: read-out: IC50 (μM ± SD), HIV-1RF/L-323-12-3; PR-resistant isolate, subtype B, MT-2, coreceptor X4
Procedure: as §1, §2

HIV-1 92UG029 = test: Inhibition of primary HIV-1 isolate, p24 ELISA, PBMC; format: cell-based; conditions: subtype A, coreceptor X4, read-out: IC50 (μM ± SD), HIV-1 92UG029
Procedure: as §5
(§7) NYAD-201, NYAD-202 and NYAD-203 were also tested against a set of primary HIV-1 isolates in PBMC representing mostly group M and one from group O with diverse coreceptor usage. […] The inhibitory activities of the peptides against this diverse range of primary isolates were similar, indicating its effectiveness against a wide range of HIV-1 isolates.

HIV-1 92US657 = test: as above; format: cell-based; conditions: subtype B, coreceptor R5, read-out: IC50 (μM ± SD), HIV-1 92US657
Procedure: as §5, §7

HIV-1 BCF02 = test: as above; format: cell-based; conditions: (Group 0), coreceptor R5, read-out: IC50 (μM ± SD), HIV-1 BCF02
Procedure: as §5, §7

HIV-1 RU570 = test: as above; format: cell-based; conditions: subtype G, coreceptor R5, read-out: IC50 (μM ± SD), HIV-1 RU570
Procedure: as §5, §7

HIV-1 98CN009 = test: as above; format: cell-based; conditions: subtype C, coreceptor R5, read-out: IC50 (μM ± SD), HIV-1 98CN009
Procedure: as §5, §7

HIV-1 93IN101 = test: as above; format: cell-based; conditions: subtype C, coreceptor R5, read-out: IC50 (μM ± SD), HIV-1 93IN101
Procedure: as §5, §7

HIV-1 93RW024 = test: as above; format: cell-based; conditions: subtype A, coreceptor R5X4, read-out: IC50 (μM ± SD), HIV-1 93RW024
Procedure: as §5, §7

HIV-1 CMU02 = test: as above; format: cell-based; conditions: subtype EA, coreceptor X4, read-out: IC50 (μM ± SD), HIV-1 CMU02
Procedure: as §5, §7

HIV-1 93BR020 = test: as above; format: cell-based; conditions: subtype F, coreceptor R5X4, read-out: IC50 (μM ± SD), HIV-1 93BR020
Procedure: as §5, §7

[5] = Solubility, observation in the Jurkat cytotoxicity test; format: physicochemical
Procedure: as §4

[6] = read-out: IC50 (μM ± SD), HIV-1 IIIB, laboratory strain, subtype B, MT-2, coreceptor X4
[7] = read-out: IC50 (μM) ± SD, antiviral activity against HIV-1 IIIB, MT-2 cells, p24 production, fourth day post-infection

Cc1c(O)cccc1C(=O)N[C@@H](CSc1ccccc1)[C@H](O)CN1C[C@H]2CCCC[C@H]2C[C@H]1C(=O)NC(C)(C)C [NFV, nelfinavir, reference compound]
Infectivity of virus produced by treated cells (HIV-1 IIIB [1]): not infectious or slightly infectious

CSCC[C@@H]1NC(=O)[C@H](Cc2c[nH]c3ccccc23)NC(=O)[C@@](C)(NC(=O)[C@H](CCCCN)NC(=O)[C@@H](NC(=O)[C@H](CCC(=O)O)NC(=O)[C@H](CCC(N)=O)NC(=O)[C@H](C)N)C(C)C)CCCC=CCCC[C@@](C)(C(=O)N[C@H](C(=O)N[C@@H](CC(C)C)C(=O)N[C@@H](CC(C)C)C(=O)N[C@H](C(=O)N[C@@H](C)C(=O)N[C@@H](CCCCN)C(=O)N[C@@H](CCCCN)C(=O)N[C@@H](CCCCN)C(N)=O)C(C)C)[C@@H](C)O)NC(=O)[C@H]([C@@H](C)O)NC1=O [NYAD-203, AQEVKXWMTXTLLVAKKK] (H-AQEVK[S5]WMT[S5]TLLVAKKK-NH2; staple 6-10)
IC50 (HIV-1 AZT-R): 11.1 ± 3.82 µM | IC50 (HIV-1 IIIB [2]; [6]): 6.29 ± 0.54 µM | IC50 (HIV-1 IIIB [2]; [7]): 6.29 ± 0.54 µM | CC50 at 4 days [3]: 13.2 ± 0.5 µM | Cytotoxicity in Jurkat cells (LDH leakage) (Jurkat cells): more toxic at the two higher doses | CC50 at 7 days [4]: 16 ± 1.47 µM

CSCC[C@@H]1NC(=O)[C@H](Cc2c[nH]c3ccccc23)NC(=O)[C@@](C)(NC(=O)[C@H](CCCCN)NC(=O)[C@@H](NC(=O)[C@H](C)NC(=O)[C@H](CCC(N)=O)NC(=O)[C@H](C)N)C(C)C)CCCC=CCCC[C@@](C)(C(=O)N[C@H](C(=O)N[C@@H](CC(C)C)C(=O)N[C@@H](CC(C)C)C(=O)N[C@H](C(=O)N[C@@H](C)C(N)=O)C(C)C)[C@@H](C)O)NC(=O)[C@H]([C@@H](C)O)NC1=O [NYAD-202, AQAVKXWMTXTLLVA] (H-AQAVK[S5]WMT[S5]TLLVA-NH2; staple 6-10)
IC50 (HIV-1 89.6): 3.47 ± 0.22 µM | IC50 (HIV-1 BaL): 2.23 ± 0.44 µM | IC50 (HIV-1 AZT-R): 4.53 ± 1.19 µM | IC50 (HIV-1 SF2): 4.48 ± 0.84 µM | IC50 (HIV-1 IIIB [2]; [6]): 2.36 ± 0.33 µM | IC50 (HIV-1 IIIB [2]; [7]): 2.36 ± 0.33 µM | IC50 (HIV-1 RF): 2.64 ± 0.39 µM | IC50 (HIV-1 MN): 2.47 ± 0.71 µM | IC50 (HIV-1RF/L-323-12-3): 3.5 ± 0.6 µM | IC50 (HIV-1 92UG029): 3.97 ± 0.47 µM | IC50 (HIV-1 92US657): 3.61 ± 0.57 µM | IC50 (HIV-1 BCF02): 6.2 ± 1.2 µM | IC50 (HIV-1 RU570): 6.34 ± 2.22 µM | IC50 (HIV-1 98CN009): 4.08 ± 0.92 µM | IC50 (HIV-1 93IN101): 5.53 ± 0.39 µM | IC50 (HIV-1 93RW024): 3.71 ± 0.19 µM | IC50 (HIV-1 CMU02): 4.2 ± 0.01 µM | IC50 (HIV-1 93BR020): 2.51 ± 0.43 µM | CC50 at 4 days [3]: 30.2 ± 4.32 µM | Solubility [5]: not very soluble | Cytotoxicity in Jurkat cells (LDH leakage) (Jurkat cells): did not demonstrate toxicity | CC50 at 7 days [4]: > 116 µM
